Data from ChEMBL document CHEMBL1142831, “Identification of a potent non-hydroxamate histone deacetylase inhibitor by mechanism-based drug design” (Bioorg Med Chem Lett, 2005).

How the values were obtained:
Histone deacetylase = assay: Inhibitory concentration against histone deacetylase of HeLa cells; format: cell-based, Homo sapiens
[1] = target: Histone deacetylase (Homo sapiens) (UniProt Q13547+O15379+Q9UBN7+Q92769+Q9UQL6+Q8WUI4+Q9BY41+Q96DB2+P56524+Q9UKV0+Q969S8); conditions: HeLa, at 100 µM
Description: Percentage inhibition against histone deacetylase of HeLa cells at 100 uM

Row | SMILES | IC50 (Histone deacetylase) [µM] | inhibition [1] [%]
1 | CS(=O)(=O)NCCCCCC(=O)Nc1ccccc1 | 7500 | 10
2 | O=C(CCS)NCCCCCC(=O)Nc1ccccc1 | 24 | 78
3 | CS(=O)(=O)CCCCCCC(=O)Nc1ccccc1 | 230 | 33
4 | O=C(CS)NCCCCC(=O)Nc1ccccc1 | 11 | 88
5 | O=C(CS)NCCCCCCC(=O)Nc1ccccc1 | 3 | 96
6 | CC(=O)SCC(=O)NCCCCCC(=O)Nc1ccccc1 | 22 | 72

Next, values leading:

Row | IC50 (Histone deacetylase) [µM] | inhibition [1] [%] | SMILES
7 | > 100 |  | O=C(CO)NCCCCCC(=O)Nc1ccccc1
8 | > 100 |  | NCC(=O)NCCCCCC(=O)Nc1ccccc1
9 |  | 99 | O=C(CS)NCCCCCC(=O)Nc1ccccc1
